In US9028856B2, “Synergistic pesticide compositions” (priority 2008, dated 2015):

Key:
Format in all cases: in vivo
[1] = system: housefly, Musca domestica; test: Housefly continuous exposure on treated glazed tile (paper cup arena)
Excerpt: Treatments were allowed to dry overnight. The housefly testing arena consisted of a 16 oz. paper cup where the bottom of the cup was removed and replaced with a piece of standard window screen. Ten adult houseflies (mixed ratio) were placed in each cup and covered with a 4″×5″ index card to prevent escape. Houseflies were continuously exposed to the treatment by inverting the testing arena and sliding the cup from the index card to the treated tile surface. Treatments were replicated a minimum of three times.

[2] = system: ants (persistent ant trails); test: Ant control field trial (ant trail counts after barrier spray)
Excerpt: The purpose of this example was to consider whether combinations of imidacloprid and adjuvant, believed acting as free radical stabilizers, is effective at controlling ant populations. The general methodology used in this analysis first involved locating a site with persistent ant trails; e.g., trails over surfaces of buildings, at structural guidelines (expansion joints, utility lines, and the like), or points where ants emerge from beneath or behind a structural element. A point of observation was fixed along the trail or point of emergence as the individual plot(s) for observations of the effects of treatment on ant activity. The near environment (structural substrate, mulch beds, ground, and the like) was sprayed to form a continuous barrier that intercepts the trailing ants in a barrier ca. 2 ft up and 2 ft out from foundation wall, and extending 2 to 3 feet on either side of the ant trail. After treatment, the observers returned to observe ant activity and count ant traffic at intervals after treatment. The evaluations were continued until the control failed, or as long as was practical. All formulations were diluted in water before treatment. Application rates, in terms of mg AI per sq. m., were as indicated in the tables. deltamethrin served as a positive control. All treatments were replicated in four plots.

[3] = system: bedbug (Cimex lectularius), susceptible strain; test: Contact efficacy against bedbugs on filter papers in glass dishes
Procedure: Adult Cimex lectularius, susceptible strain, were used. A solution of the active ingredient in acetone was prepared. In the same mode a complete […]. All these works were done under drawing off conditions. After evaporation of the acetone (30′) the dishes were closed by a glass lid and transferred into the test room.
One day later ten bedbugs, anaesthetized with CO2, were counted into each dish. At regular intervals, knock down was recorded (cumulatively).
The same methodology was used as was used in Example 105.

[4] = system: German cockroach (Blattella germanica); test: Contact efficacy against cockroaches on filter papers in glass dishes
Excerpt: The objective of this study was to evaluate differences between deltamethrin and imidacloprid with and without adjuvant against cockroaches. The method for determining contact efficacy against cockroaches was the same as that in Example 107.

Aedes aegypti mosquito = test: USDA Petri Dish Method, 3 min exposure to dipped fiberglass window screen
How it was run: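 Fiberglass screens dipped in 1% deltamethrin or permethrin at 1.25, 1.0 or 0.05% AI, each with or without Suspend SC adjuvant, then drained and air-dried overnight. Twenty 4-6 day female mosquitoes exposed 3 min, then held on untreated card with sucrose. Knockdown scored over 1 h and mortality at 24 h; ≥3 replicates.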

[5] = 0.00032% imidacloprid (1 mg/m^2) in acetone, filter papers, Table 105
[6] = 0.0016% Imidacloprid in acetone, first test
[7] = 0.0016% Imidacloprid in acetone, second test
[8] = 0.0016% imidacloprid (6 mg/m^2) in acetone, filter papers, Table 105
[9] = 0.008% Imidacloprid in acetone, first test
[10] = 0.008% Imidacloprid in acetone, second test
[11] = 0.0000128% Deltamethrin in acetone, first test
[12] = 0.0000128% Deltamethrin in acetone, second test
[13] = 0.000064% Deltamethrin in acetone, first test
[14] = 0.000064% Deltamethrin in acetone, second test
[15] = 0.00032% Deltamethrin in acetone
[16] = 0.0016% Deltamethrin in acetone

CC[S+]([O-])c1c(C#N)nn(-c2c(Cl)cc(C(F)(F)F)cc2Cl)c1N (centres unmarked) [Ethiprole (1%)]
Average % Knockdown & Mortality after 3 hr ([1]; Table 58, housefly, glazed tile, continuous exposure, 3 hr): 0%
Average % Knockdown & Mortality after 5 hr ([1]; Table 58, housefly, glazed tile, continuous exposure, 5 hr): 0%
Average % Knockdown & Mortality after 7 hr ([1]; Table 58, housefly, glazed tile, continuous exposure, 7 hr): 3%
Average % Knockdown & Mortality after 24 hr ([1]; Table 58, housefly, glazed tile, continuous exposure, 24 hr): 97%
Average % Knockdown & Mortality after 1 hr ([1]; Table 58, housefly, glazed tile, continuous exposure, adjuvant = Compound A 1% + Compound B 0.5%, 1 hr): 0%

O=[N+]([O-])NC1=NCCN1Cc1ccc(Cl)nc1 [imidacloprid]
reduction in ant activity, cross-trial average (relative to pretreatment counts) [2]: 34.1%
% knock down or moribund after 1 h [3, 5]: 0%
% knock down or moribund after 2 h [3, 5]: 0%
% knock down or moribund after 4 h [3, 5]: 0%
% knock down or moribund after 6 h [3, 5]: 0%
% knock down or moribund after 1 d [3, 5]: 0%
% knock down or moribund after 2 d [3, 5]: 0%
% knock down or moribund after 6 d [3, 5]: 0%
% knock down or moribund after 1 h [3, 6]: 0%
% knock down or moribund after 2 h [3, 6]: 0%
% knock down or moribund after 4 h [3, 6]: 0%
% knock down or moribund after 6 h [3, 6]: 10%
% knock down or moribund after 1 d [3, 6]: 20%
% knock down or moribund after 2 d [3, 6]: 20%
% knock down or moribund after 6 d [3, 6]: 40%
% knock down or moribund after 1 h [3, 7]: 0%
% knock down or moribund after 2 h [3, 7]: 0%
% knock down or moribund after 4 h [3, 7]: 0%
% knock down or moribund after 6 h [3, 7]: 0%
% knock down or moribund after 1 d [3, 7]: 0%
% knock down or moribund after 2 d [3, 7]: 0%
% knock down or moribund after 6 d [3, 7]: 0%
% knock down or moribund after 1 h [3, 8]: 0%
% knock down or moribund after 2 h [3, 8]: 0%
% knock down or moribund after 4 h [3, 8]: 0%
% knock down or moribund after 6 h [3, 8]: 0%
% knock down or moribund after 1 d [3, 8]: 0%
% knock down or moribund after 2 d [3, 8]: 0%
% knock down or moribund after 6 d [3, 8]: 0%
% knock down or moribund after 1 h [3, 9]: 0%
% knock down or moribund after 2 h [3, 9]: 0%
% knock down or moribund after 4 h [3, 9]: 0%
% knock down or moribund after 6 h [3, 9]: 20%
% knock down or moribund after 1 d [3, 9]: 30%
% knock down or moribund after 2 d [3, 9]: 40%
% knock down or moribund after 6 d [3, 9]: 80%
% knock down or moribund after 1 h [3, 10]: 0%
% knock down or moribund after 2 h [3, 10]: 0%
% knock down or moribund after 4 h [3, 10]: 0%
% knock down or moribund after 6 h [3, 10]: 0%
% knock down or moribund after 1 d [3, 10]: 0%
% knock down or moribund after 2 d [3, 10]: 0%
% knock down or moribund after 6 d [3, 10]: 10%
efficacy after 6 days ([3]; Example 106, filter paper, concentrations in the label): 0%
% Mortality after 15′ ([4]; 0.04% Imidacloprid in acetone): 0%
% Mortality after 30′ ([4]; 0.04% Imidacloprid in acetone): 0%
% Mortality after 1 h ([4]; 0.04% Imidacloprid in acetone): 0%
% Mortality after 2 h ([4]; 0.04% Imidacloprid in acetone): 0%
% Mortality after 4 h ([4]; 0.04% Imidacloprid in acetone): 0%
% Mortality after 6 h ([4]; 0.04% Imidacloprid in acetone): 0%
% Mortality after 1 d ([4]; 0.04% Imidacloprid in acetone): 0%
% Mortality after 15′ ([4]; 0.2% Imidacloprid in acetone): 0%
% Mortality after 30′ ([4]; 0.2% Imidacloprid in acetone): 0%
% Mortality after 1 h ([4]; 0.2% Imidacloprid in acetone): 0%
% Mortality after 2 h ([4]; 0.2% Imidacloprid in acetone): 0%
% Mortality after 4 h ([4]; 0.2% Imidacloprid in acetone): 0%
% Mortality after 6 h ([4]; 0.2% Imidacloprid in acetone): 0%
% Mortality after 1 d ([4]; 0.2% Imidacloprid in acetone): 0%
efficacy with adjuvant compared with insecticide alone (summary in words) ([4]; filter papers in glass dishes): no mortality was observed, with or without adjuvant

CC[S+]([O-])c1c(C#N)nn(-c2c(Cl)cc(C(F)(F)F)cc2Cl)c1N (centres unmarked) [ethiprole]
mortality after about 6 hours ([1]; ethiprole 0.01% with or without adjuvant (FIG. 52)): about 6%

CC1(C)[C@H](C(=O)O[C@H](C#N)c2cccc(Oc3ccccc3)c2)[C@@H]1C=C(Br)Br [deltamethrin (1%)]
Average % Knockdown & Mortality after 3 min (Aedes aegypti mosquito; 3 min, Table 26, aqueous deltamethrin/adjuvant, dipped screen, 3 min exposure): 0%
Average % Knockdown & Mortality after 9 min (Aedes aegypti mosquito; 9 min, Table 26, aqueous deltamethrin/adjuvant, dipped screen, 3 min exposure): 0%
Average % Knockdown & Mortality after 15 min (Aedes aegypti mosquito; 15 min, Table 26, aqueous deltamethrin/adjuvant, dipped screen, 3 min exposure): 0%
Average % Knockdown & Mortality after 30 min (Aedes aegypti mosquito; 30 min, Table 26, aqueous deltamethrin/adjuvant, dipped screen, 3 min exposure): 27%
Average % Knockdown & Mortality after 60 min (Aedes aegypti mosquito; 60 min, Table 26, aqueous deltamethrin/adjuvant, dipped screen, 3 min exposure): 84%
Average % Knockdown & Mortality after 24 hr (Aedes aegypti mosquito; 24 hr, Table 26, aqueous deltamethrin/adjuvant, dipped screen, 3 min exposure): 100%

CC1(C)[C@H](C(=O)O[C@H](C#N)c2cccc(Oc3ccccc3)c2)[C@@H]1C=C(Br)Br [deltamethrin]
mortality at 24 hours after exposure (Aedes aegypti mosquito; 1% deltamethrin alone, treated screen): 100%
efficacy of the substance alone (summary in words) (Aedes aegypti mosquito; Aedes aegypti, treated window screen): good knockdown
reduction in ant activity, cross-trial average (relative to pretreatment counts) [2]: 57.9%
% knock down or moribund after 1 h [3, 11]: 0%
% knock down or moribund after 2 h [3, 11]: 0%
% knock down or moribund after 4 h [3, 11]: 0%
% knock down or moribund after 6 h [3, 11]: 0%
% knock down or moribund after 1 d [3, 11]: 20%
% knock down or moribund after 2 d [3, 11]: 20%
% knock down or moribund after 6 d [3, 11]: 20%
% knock down or moribund after 1 h [3, 12]: 0%
% knock down or moribund after 2 h [3, 12]: 0%
% knock down or moribund after 4 h [3, 12]: 0%
% knock down or moribund after 6 h [3, 12]: 0%
% knock down or moribund after 1 d [3, 12]: 10%
% knock down or moribund after 2 d [3, 12]: 10%
% knock down or moribund after 6 d [3, 12]: 40%
% knock down or moribund after 1 h [3, 13]: 20%
% knock down or moribund after 2 h [3, 13]: 20%
% knock down or moribund after 4 h [3, 13]: 70%
% knock down or moribund after 6 h [3, 13]: 70%
% knock down or moribund after 1 d [3, 13]: 70%
% knock down or moribund after 2 d [3, 13]: 80%
% knock down or moribund after 6 d [3, 13]: 100%
% knock down or moribund after 1 h [3, 14]: 0%
% knock down or moribund after 2 h [3, 14]: 40%
% knock down or moribund after 4 h [3, 14]: 40%
% knock down or moribund after 6 h [3, 14]: 40%
% knock down or moribund after 1 d [3, 14]: 40%
% knock down or moribund after 2 d [3, 14]: 60%
% knock down or moribund after 6 d [3, 14]: 60%
% Mortality after 15′ [4, 15]: 0%
% Mortality after 30′ [4, 15]: 0%
% Mortality after 1 h [4, 15]: 0%
% Mortality after 2 h [4, 15]: 20%
% Mortality after 4 h [4, 15]: 20%
% Mortality after 6 h [4, 15]: 20%
% Mortality after 1 d [4, 15]: 100%
% Mortality after 15′ [4, 16]: 40%
% Mortality after 30′ [4, 16]: 60%
% Mortality after 1 h [4, 16]: 80%
% Mortality after 2 h [4, 16]: 100%
% Mortality after 4 h [4, 16]: 100%
% Mortality after 6 h [4, 16]: 100%
% Mortality after 1 d [4, 16]: 100%
